Values quoted from earlier work in paper PMC5751249, “Anti-Diabetic Effect of Organo-Chalcogen (Sulfur and Selenium) Zinc Complexes with Hydroxy-Pyrone Derivatives on Leptin-Deficient Type 2 Diabetes Model ob/ob Mice” (International Journal of Molecular Sciences, 2017).

Tests used:
[1] = tested on: Isolated male Wistar rat epididymal adipocytes; parameters: method as in PMID 29843022; conditions: 20 μM Zn complex, means ± SDs, three runs; cited from earlier work
[2] = tested on: Isolated male Wistar rat epididymal adipocytes; parameters: method as in PMID 29843022; conditions: adrenaline-stimulated, means ± SDs, three runs, read-out: IC50 of free fatty acid release; cited from earlier work

O.O.O.O.O.O.O.O=S(=O)([O-])[O-].[Zn+2] [ZnSO4, Zinc sulfate heptahydrate, reference compound]
Glucose Uptake [1]: none
IC50 [2]: 585 ± 305 µM
